Entries after “also recorded” stand apart in the source; their conditions may differ.
Columns and labels:
His6-tagged FKBP52 = molecular target: T1, His6-tagged FKBP52 (Homo sapiens, UniProt Q02790); assay: [3H]-FK506 binding on Ni-chelated FLASH plate
T1 construct: made in house
T1 sequence (Q02790 1-459): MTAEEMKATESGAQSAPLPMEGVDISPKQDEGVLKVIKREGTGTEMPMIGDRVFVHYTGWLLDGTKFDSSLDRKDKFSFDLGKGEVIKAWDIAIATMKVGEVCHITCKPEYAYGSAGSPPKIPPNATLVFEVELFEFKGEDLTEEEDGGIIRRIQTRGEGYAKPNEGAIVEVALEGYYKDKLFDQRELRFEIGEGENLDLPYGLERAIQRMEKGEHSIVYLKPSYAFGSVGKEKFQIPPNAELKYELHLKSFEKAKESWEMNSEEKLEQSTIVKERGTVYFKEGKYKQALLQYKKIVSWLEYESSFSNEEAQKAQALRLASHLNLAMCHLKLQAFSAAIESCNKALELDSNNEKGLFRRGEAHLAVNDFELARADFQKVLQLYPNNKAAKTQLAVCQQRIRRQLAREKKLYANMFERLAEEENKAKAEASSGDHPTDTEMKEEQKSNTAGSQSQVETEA
Experimental: Reactions were carried out in triplicate at 25° C. for 30 min. Kd were calculated using methods described by Carreras (Anal. Biochem. 298, 57-61 (2001)).

FKBP52 = molecular target: T2, FKBP52 (Mus musculus, UniProt P30416); assay: Affinity precipitation from F-11 cell lysate, FT-ICR-MS and Western analysis; type: binding, rat and mouse hybrid
T2 construct: endogenous in cells; host or cells: F-11 cells (rat DRG x mouse neuroblastoma hybrid), lysate
Experimental: (§1) Briefly, the amino group of amino-phenyl-butyric acid (1200 mg) was protected with an allyloxycarbonyl group by treating with diallyldicarbonate ([…]) in dioxane:water (3:1; 50 ml) for 3 h at room temperature.
(§2) The reaction was quenched with methanol and the ester product was purified by HPLC with a purity of 99% and characterized by MS and NMR. After removing the allyloxycarbonyl group of the ester product (40 mg) by treatment with Pd(PPh3)4 (2 mg) and dimedone (7 mg) in THF (1.2 ml), the amino group of the product was linked to Affigel-10 matrix (4 ml) in the presence of 2% pyridine in THF.
(§3) F11 cells were grown in culture medium, DMEM supplemented with 10% FBS and 1% pen/Strep, in 75 cm^2 vented flasks in 37° C. incubator with 5% CO2. Cells were harvested at 80% confluence and washed with PBS buffer. Lysis buffer (6 ml; 50 mM Tris, pH 7.4, 250 mM NaCl, 5 mM EDTA, 50 mM NaF, 1 mM Na3VO4, 1% Nonidet P40 (NP40), 0.1% mercaptoethanol and 2% protease inhibitor cocktails) was added to 10^9 cells. Cells were broken by forcing them through a 26-gauge needle, and S-100 supernatant was collected after 15 min centrifugation at 4° C. […] After washes with lysis buffer (2 ml) and then PBS (2 ml), the beads were analyzed on 4-20% SDS-PAGE gel. […] The protein bands (FIG. 3) were cut out and digested with trypsin (0.3 ng) in digestion buffer (30 μl; 0.2% NH4HCO3) at 30° C. overnight. The resulting peptides were purified on C18-resin and submitted for FT-ICR-MS analysis. The FT-ICR-MS data was manually edited and used to search protein databases. The results are shown in FIG. 4 and have the following scores. FK506-binding protein (FKBP52) (P30416, score: 94, expect: 9.6e-05); MS Data of the 59 kDa band: 2753.35; 1710.94; 2215.13; 2363.15; 1298.71; 1215.59; 1000.51; 1000.46; 1790.93; 1381.70; 2746.36; 1316.71; and 1171.60. Voltage dependent L-type calcium channel β1 subunit (Q8R3Z5-03-00-00, score: 133, expect: 1e-09); MS Data of the 52 kDa band: 651.38; 663.39; 779.54; 853.55; 1014.50; 1347.75; 1217.78; 1346.67; 1297.75; 1231.77; 877.52; 853.47; 919.48; 1014.56; 1041.63; 1217.74; 1231.74; 1296.84; 869.58 (major).
(§4) In another experiment, F11 cells were grown in culture medium, DMEM supplemented with 10% FBS and 1% Pen/Strep, in 75 cm^2 vented flasks in a 37° C. incubator with 5% CO2. Cells were harvested at 80% confluence and washed with PBS buffer. To 3×10^8 cells, lysis buffer (2 ml; 50 mM Tris, pH 7.4, 250 mM NaCl, 5 mM EDTA, 50 mM NaF, 1 mM Na3VO4, 1% Nonidet P40, 0.1% mercaptoethanol and 2% protease inhibitor cocktails) was added, and its S-100 supernatant was collected after 15 min centrifugation at 4° C. […] After wash with lysis buffer (2 ml) and then PBS buffer (2 ml), beads were analyzed by SDS-PAGE. […]

[1] = molecular target: T3, β1 subunit (CACNB1) of the voltage gated L-type calcium channel (Mus musculus, UniProt Q8R3Z5); assay: as above; type: binding, rat and mouse hybrid
T3 construct: endogenous in cells; host or cells: F-11 cells (rat DRG x mouse neuroblastoma hybrid), lysate
Experimental: as §1, §2, §3, §4

T2 sequence (P30416 whole entry): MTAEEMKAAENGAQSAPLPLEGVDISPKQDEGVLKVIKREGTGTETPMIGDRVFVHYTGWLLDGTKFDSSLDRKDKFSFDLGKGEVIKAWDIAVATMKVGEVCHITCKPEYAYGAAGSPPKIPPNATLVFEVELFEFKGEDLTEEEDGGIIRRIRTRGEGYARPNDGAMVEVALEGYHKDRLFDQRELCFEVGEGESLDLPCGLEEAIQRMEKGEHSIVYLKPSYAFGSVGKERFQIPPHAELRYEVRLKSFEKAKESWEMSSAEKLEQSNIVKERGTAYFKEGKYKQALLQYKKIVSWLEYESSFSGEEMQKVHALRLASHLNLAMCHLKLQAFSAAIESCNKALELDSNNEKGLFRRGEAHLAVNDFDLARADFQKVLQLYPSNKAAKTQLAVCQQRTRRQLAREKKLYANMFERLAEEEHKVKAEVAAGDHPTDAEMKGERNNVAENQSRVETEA
T3 sequence (Q8R3Z5 1-479 isoform Q8R3Z5-3): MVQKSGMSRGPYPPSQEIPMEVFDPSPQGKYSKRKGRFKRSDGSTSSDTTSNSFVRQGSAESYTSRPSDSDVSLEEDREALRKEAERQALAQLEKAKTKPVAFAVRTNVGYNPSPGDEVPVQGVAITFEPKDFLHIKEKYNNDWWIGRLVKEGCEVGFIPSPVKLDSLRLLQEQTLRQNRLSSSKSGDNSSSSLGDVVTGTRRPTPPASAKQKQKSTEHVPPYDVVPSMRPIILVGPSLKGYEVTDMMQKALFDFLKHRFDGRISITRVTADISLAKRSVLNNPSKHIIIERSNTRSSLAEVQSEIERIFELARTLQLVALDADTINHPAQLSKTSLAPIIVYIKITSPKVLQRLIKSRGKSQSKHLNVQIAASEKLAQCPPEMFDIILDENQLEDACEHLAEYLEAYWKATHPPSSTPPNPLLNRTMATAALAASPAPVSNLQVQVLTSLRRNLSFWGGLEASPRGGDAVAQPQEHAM

Structure (SMILES)	Kd (His6-tagged FKBP52)	FKBP52 in affinity bead fraction (FKBP52)	L-type calcium channel β1 subunit (CACNB1) in affinity bead fraction [1]
CO[C@H]1C[C@@H]2CC[C@@H](C)[C@@](O)(O2)C(=O)C(=O)N2CCCCC2C(=O)O[C@H]([C@H](C)C[C@@H]2CC[C@@H](O)[C@H](OC)C2)CC(=O)[C@H](C)/C=C(\C)[C@@H](O)[C@@H](OC)C(=O)[C@H](C)C[C@H](C)C2C=C[C@H](/C=C/1C)ON2c1ccccc1 (stereo partly drawn) [Rapamycin analogue I, 9,27-dihydroxy-3-{2-[4-hydroxy-3-methoxycyclohexyl]-1-methylethyl}-10,21-dimethoxy-6,8,12,14,20,26-hexamethyl-37-phenyl-4,9,10,12,13,14,15,18,21,22,23,24,25,26,27,32,33,34,34a-nonadecahydro-3H-23,27-epoxy-18,15-(epoxyimino)pyrido[2,1-c][1,4]oxazacyclohentriacontine-1,5,11,28,29(6H, 31H)-pentone]	0.55 ± 0.05 nM	major targets; also recorded: detected	major targets; also recorded: detected
CO[C@H]1C[C@@H]2CC[C@@H](C)[C@@](O)(O2)C(=O)C(=O)N2CCCCC2C(=O)O[C@H]([C@H](C)C[C@@H]2CC[C@@H](O)[C@H](OC)C2)CC(=O)[C@H](C)/C=C(\C)[C@@H](O)[C@@H](OC)C(=O)[C@H](C)C[C@H](C)C2CC[C@H](/C=C/1C)ON2c1ccccc1 (stereo partly drawn) [Rapamycin analogue II, 9,27-dihydroxy-3-{2-[4-hydroxy-3-methoxycyclohexyl]-1-methylethyl}-10,21-dimethoxy-6,8,12,14,20,26-hexamethyl-37-phenyl-4,9,10,12,13,14,15,16,17,18,21,22,23,24,25,26,27,32,33,34,34a-henicosahydro-3H-23,27-epoxy-18,15-(epoxyimino)pyrido[2,1-c][1,4]oxazacyclohentriacontine-1,5,11,28,29(6H, 31H)-pentone]	0.48 ± 0.04 nM	major targets	major targets
